The nature of series [1]: stability under ethylene oxide sterilization, heating, and aging with paclitaxel. The conditions noted are these: reacted with paclitaxel.
The nature of series [2]: BPH Preclinical Study 4: tissue and plasma PK, histology.

Molecules are shown by their SMILES.

For `O=C(O)c1ccccc1` [benzoic acid], the “stability under ethylene oxide sterilization, heating, and aging process” value in series [1] is on record as “not stable”.
Turning to `CC(=O)O[C@H]1C(=O)[C@@]2(C)[C@H]([C@H](OC(=O)c3ccccc3)[C@]3(O)C[C@H](OC(=O)[C@H](O)[C@@H](NC(=O)c4ccccc4)c4ccccc4)C(C)=C1C3(C)C)[C@]1(OC(C)=O)CO[C@@H]1C[C@@H]2O` [paclitaxel], the “prostate tissue drug concentration, maximum dose arm vs standard dose” value in series [2] (28 days) is recorded as 4.5 times higher; in series [2] (70 days), 23 times higher. For the same compound, the entries for the “prostatic urethra tissue drug concentration, maximum dose arm vs standard dose” value in series [2] (28 days) and in series [2] (70 days) were 11 times higher and 23 times higher, respectively. The clinical abnormalities result in series [2] (all animals, duration of the study) is “No significant clinical abnormalities”. Also, the “increase of urethral luminal diameter as a result of commissurotomy” value in series [2] (did not change between 7 days and 70 days) is “approximately 50%”. Further, the “histology of the prostate” value in series [2] (maximum dose animals, 28 days, slower healing relative to standard dose and control) is given as “ongoing healing”. Moreover, the abnormalities or complications entry in series [2] (maximum dose treatment arm, 19.6 mg of paclitaxel) was “no abnormalities or complications”. In addition, the plasma paclitaxel concentration result is given as “BLOQ” in series [2] (maximum dose, 12 hour and later); “BLOQ” in series [2] (standard dose, all time-points (1, 3, 7, 12 hours, 1, 3, 7, 14, 28 days)). Moreover, in series [2] (most samples, 28 days and beyond), the “nonurethral close proximity tissue sample concentrations” value was “at or below the limit of quantification”.

The values are drawn from patent US12383710B2 (Urotronic, Inc., priority 2019, dated 2025).
